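Values below derive from 48-hour exposures of cells grown in 96-well plates, with endpoints linearly interpolated between the two concentrations bracketing the appropriate inhibition level. Abbreviation: GI50, concentration required for 50% inhibition of growth. TGI is the concentration that stops growth completely.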
Assays:
Assay in all cases: DTP human tumour cell line panel, 48 h
HCC-2998 colon = tested on: HCC-2998 colon
HS 578T breast = tested on: HS 578T breast
KM12 colon = tested on: KM12 colon
MDA-MB-231 breast = tested on: MDA-MB-231 breast
OVCAR-5 ovarian = tested on: OVCAR-5 ovarian
OVCAR-8 ovarian = tested on: OVCAR-8 ovarian
RPMI-8226 leukemia = tested on: RPMI-8226 leukemia
SR leukemia = tested on: SR leukemia
SW-620 colon = tested on: SW-620 colon
UO-31 renal = tested on: UO-31 renal

| SMILES | GI50 (HCC-2998 colon) | TGI (HCC-2998 colon) | GI50 (HS 578T breast) | TGI (HS 578T breast) | GI50 (KM12 colon) | TGI (KM12 colon) | GI50 (MDA-MB-231 breast) | TGI (MDA-MB-231 breast) | GI50 (OVCAR-5 ovarian) | TGI (OVCAR-5 ovarian) | GI50 (OVCAR-8 ovarian) | TGI (OVCAR-8 ovarian) | GI50 (RPMI-8226 leukemia) | TGI (RPMI-8226 leukemia) | GI50 (SR leukemia) | TGI (SR leukemia) | GI50 (SW-620 colon) | TGI (SW-620 colon) | GI50 (UO-31 renal) | TGI (UO-31 renal) |
| --- | --- | --- | --- | --- | --- | --- | --- | --- | --- | --- | --- | --- | --- | --- | --- | --- | --- | --- | --- | --- |
| C=C(C)[C@@H]1CC[C@]2(C)[C@H](CC[C@@H]3[C@@H]([C@@](C)(O)CCC=C(C)C)CC[C@]32C)[C@@]1(C)CCC(=O)O | 21.2 µM | 37.8 µM | 24 µM | 86.9 µM | 16.3 µM | 32.4 µM | 16.6 µM | 33.1 µM | 17.6 µM | 34.2 µM | 19 µM | 43 µM | 12.2 µM | 38.2 µM | 16.5 µM | 44.7 µM | 28.5 µM | > 100 µM | 15.7 µM | 29.4 µM |
| COc1cc2c3c(n(CCCN(CCO)CCO)c(=O)c2cc1OC)-c1cc2c(cc1C3=O)OCO2 | < 0.01 µM | < 0.01 µM | 1.66 µM | 13 µM | 0.365 µM | 1.84 µM | 0.583 µM | 2.42 µM | 0.209 µM | 1.31 µM | 0.221 µM | 6.01 µM | < 0.01 µM | 0.207 µM | < 0.01 µM | < 0.01 µM | < 0.01 µM | 1.71 µM |  |  |
| CCOC(=O)C1=C(N)Oc2c(sc3c(C)cccc23)C1c1ccc(F)cc1 (stereo not drawn) | 1.72 µM | 8.78 µM | 0.472 µM | 7.17 µM | 0.464 µM | 13.6 µM | 2.37 µM | 16 µM | 1.67 µM | 17.6 µM | 0.581 µM | 18.1 µM | 0.489 µM | 5.38 µM | 0.47 µM | 17.9 µM | 0.453 µM | 15.9 µM | 0.583 µM | 18.3 µM |
| CC(C)(C)c1cc(C(=O)/C=C/c2ccc(C(=O)O)cc2)cc(C(C)(C)C)c1 |  | 3.88 µM |  | 3.96 µM |  | 5.75 µM |  | 13 µM |  | 17.2 µM |  | 7.13 µM |  | 6.06 µM |  | 6.16 µM |  | 12.1 µM |  | 17.8 µM |
| NC(N)=N/N=C(\N=Nc1ccccc1)c1ccc(Cl)cc1 | 2.14 µM | 4.68 µM | 4.79 µM | 46.6 µM | 2.15 µM | 7.76 µM | 1.9 µM | 12.7 µM | 3.69 µM | 16.8 µM | 2.81 µM | 9.58 µM | 3.21 µM | 12 µM | 1.93 µM | 4.72 µM | 1.41 µM | 3.54 µM | 2.29 µM | 6.34 µM |
| NCCCn1c2c(c3ccccc3c1=O)C(=O)c1ccccc1-2 | 0.0684 µM | 1.01 µM | 0.556 µM | 6.25 µM | 0.124 µM | 2.65 µM | 0.177 µM | 0.736 µM | 0.306 µM | 2.94 µM | 0.0658 µM | 1.32 µM |  | 0.528 µM | 0.0743 µM |  | 0.0713 µM | 5.83 µM | 0.248 µM | 16.5 µM |
| O=C(Nc1ccc(Cl)cc1)Nc1nccs1 | 12.9 µM | 45.9 µM | 1.33 µM | 34.1 µM | 0.491 µM | 19.4 µM | 3.18 µM | 41.5 µM | 12.8 µM | > 100 µM | 3.39 µM | > 100 µM | 2.63 µM | 16.6 µM | 0.45 µM | 62.6 µM | 0.4 µM | > 100 µM | 4.29 µM | > 100 µM |
| COc1ccc(-c2ccc(NNC(=O)c3ccc(F)cc3)nn2)cc1OC | > 100 µM | > 100 µM | 63.9 µM | > 100 µM | > 100 µM | > 100 µM | 93 µM | > 100 µM | > 100 µM | > 100 µM |  |  | 35.3 µM | > 100 µM | > 100 µM | > 100 µM | > 100 µM | > 100 µM | 31.7 µM | > 100 µM |
| Cc1sc2c(c1C)C(c1ccc(Cl)cc1)=N[C@@H](CC(=O)Nc1ccc(OCCOCCOCCOCCNc3cccc4c3C(=O)N(C3CCC(=O)NC3=O)C4=O)cc1)c1nnc(C)n1-2 (stereo partly drawn) | 0.0796 µM | > 100 µM | < 0.0178 µM | > 100 µM |  | > 100 µM | < 0.0175 µM | > 83.8 µM | < 0.0465 µM | > 100 µM | < 0.0193 µM | > 100 µM | < 0.0175 µM | > 100 µM | < 0.0219 µM | > 100 µM | 0.0787 µM | > 100 µM | 0.28 µM | > 100 µM |
| Oc1ccc(N=Nc2nccs2)c(O)c1 | 3.92 µM | 15 µM | 13.6 µM | 78.1 µM | 4.57 µM | 22.7 µM | 8.77 µM | > 100 µM | 7.84 µM | 29.4 µM | 3.75 µM | 23 µM | 1.62 µM | 4.91 µM | 2.12 µM | 9.8 µM | 5 µM | 22.3 µM | 3.51 µM | 21.8 µM |
| CN1C(NNC(=O)c2cccnc2)=NS(=O)(=O)c2cc(Cl)ccc21 | > 100 µM | > 100 µM | > 100 µM | > 100 µM | > 100 µM | > 100 µM | > 100 µM | > 100 µM | > 100 µM | > 100 µM | > 100 µM | > 100 µM | > 100 µM | > 100 µM | > 100 µM | > 100 µM | > 100 µM | > 100 µM | > 100 µM | > 100 µM |
| COc1ccc(-c2nn(-c3cccc(Cl)c3)cc2-c2nc(N)[nH]c(=O)c2C#N)cc1 | 5.87 µM | 24.9 µM | 3.55 µM | 40.3 µM | 3.84 µM | 15.2 µM | 3.39 µM | 53.3 µM | 14.6 µM | 51.4 µM | 10.1 µM | 60.3 µM | 5.63 µM | 55.5 µM | 3.73 µM | 21.2 µM | 4.38 µM | 34.2 µM | 2.94 µM | 47.8 µM |
| O=C(CCN1CCOCC1)Nc1cccc(-n2cc(-c3ccncc3)c(-c3ccc(Cl)c(O)c3)n2)c1 | 4.57 µM | 17.3 µM | 3.17 µM | 25.8 µM | 2.46 µM | 11.5 µM | 2.6 µM | 6.84 µM | 4.07 µM | 18.4 µM | 3.71 µM | 57.5 µM | 2.8 µM | 15.1 µM | 0.685 µM | 8.53 µM | 1.56 µM | 12.6 µM | 1.69 µM | 11 µM |

From PubChem BioAssay (NCI)
